Assay results from patent publication US10555535B2, “Pest control composition and pest control method” (SUMITOMO CHEMICAL COMPANY, LIMITED, priority 2015, dated 2020).

Experiments:
[1] = tested on: Aphis gossypii; experiment: Test Example 12: treated soybean seeds, controlling effect on Aphis gossypii; format: in vivo
Protocol: In a rotary seed treatment machine (trade name: HEGE11, manufactured by WINTERSTEIGER), soybean seeds (variety:“Hatayutaka”) were treated by smearing treatment using flowable formulation of the present bacterial strain obtained in Formulation Example 14, flupyradifurone liquid formulation (20.0% liquid formulation, trade name: SIVANTO200, Bayer CropScience), thiacloprid flowable formulation (40.0% flowable formulation, trade name: Sonido, Bayer CropScience), thiamethoxam flowable formulation (47.6% flowable formulation, trade name: Cruiser 5FS, Syngenta Crop Protection LCC), so that the soybean seeds retain the present bacterial strain and the compound in the amount shown in Table 5.
Twenty Aphis gossypii were released on the 14th day after the seeding, and the number of living Aphis gossypii was counted on the 5th day after the release. Similar procedures were conducted using untreated soybean seeds, instead of the treated soybean seeds, as described above for the treated compartment (“untreated compartment”).
(§1) Based on the numbers of survivors in the treated compartment and the untreated compartment, the effect in the treated compartment was calculated by the following equation. Controlling effect=100×[(number of survivors in untreated compartment−number of survivors in treated compartment)/number of survivors in untreated compartment]
(§2) If the effect by the combination of two active ingredients is greater than that of the estimated value E, which is calculated by the Colby's equation as follows, the effect is regarded as synergistic. E=X+Y−X·Y/100 wherein, • E=Controlling effect when using the mixture of the active ingredients A and B at the concentrations m and n (amount of the active ingredient), respectively. • X=Controlling effect when using the active ingredient A at the concentration m (amount of the active ingredient). • Y=Controlling effect when using the active ingredient B at the concentration n (amount of the active ingredient).

[2] = tested on: Diabrotica virgifera virgifera; experiment: Test Example 13: treated corn seeds, controlling effect on Diabrotica virgifera virgifera larvae; format: in vivo
Protocol: as §2
In a rotary seed treatment machine (trade name: HEGE11, manufactured by WINTERSTEIGER), corn seeds (variety: yellow dent corn) were treated by smearing treatment using the wettable powder of the present bacterial strain obtained in Formulation Example 13 or clothianidin flowable formulation (47.8% flowable formulation, trade name: NipsIt Inside Insecticide, Valent U.S.A. Corporation), or imidacloprid flowable formulation (48.7% flowable formulation, trade name: Gaucho 600, Bayer CropScience), so that the corn seeds thus treated retain the present bacterial strain, clothianidin or imidacloprid in the amount shown in Table 6.
In a rotary seed treatment machine (trade name: HEGE11, manufactured by WINTERSTEIGER), the corn seeds thus treated with clothianidin or imidacloprid were treated by wet powder coating with a wettable powder of the present bacterial strain as obtained in Formulation Example 13, so that the […] thus treated retain the present bacterial strain and clothianidin or the present bacterial strain and imidacloprid in the amount shown in Table 6.
Newly hatched larvae of Diabrotica virgifera virgifera are released (10 for each stalk of corn) on the 7th day after the seeding, and the number of living Diabrotica virgifera virgifera was counted on the 10th day after the release. Similar procedures were conducted using untreated corn seeds, instead of the treated corn seeds, as described above for the treated compartment (“untreated compartment”).
as §1, with “compartment number” for “compartment−number”

SMILES: N#C/N=C1\SCCN1Cc1ccc(Cl)nc1 [Thiacloprid, thiacloprid]
- Controlling Effect ([1]; soybean seeds retaining 0.3 g /Kg seeds): 56.9
- Controlling Effect ([1]; soybean seeds retaining 0.45 g /Kg seeds): 69.0

SMILES: O=C1C=C(N(Cc2ccc(Cl)nc2)CC(F)F)CO1 [Flupyradifurone, flupyradifurone]
- Controlling Effect ([1]; soybean seeds retaining 0.2 g /Kg seeds): 65.9
- Controlling Effect ([1]; soybean seeds retaining 0.4 g /Kg seeds): 77.6

SMILES: CN1COCN(Cc2cnc(Cl)s2)/C1=N\[N+](=O)[O-] [Thiamethoxam, thiamethoxam]
- Controlling Effect ([1]; soybean seeds retaining 0.15 g /Kg seeds): 70.6
- Controlling Effect ([1]; soybean seeds retaining 0.25 g /Kg seeds): 78.4

SMILES: O=[N+]([O-])NC1=NCCN1Cc1ccc(Cl)nc1 [Imidacloprid, imidacloprid]
- Controlling Effect ([2]; corn seeds retaining 2.0 g /Kg seeds): 51.4
- Controlling Effect ([2]; corn seeds retaining 2.5 g /Kg seeds): 62.8

SMILES: CN/C(=N\[N+](=O)[O-])NCc1cnc(Cl)s1 [Clothianidin, clothianidin]
- Controlling Effect ([2]; corn seeds retaining 0.6 g /Kg seeds): 41.4
- Controlling Effect ([2]; corn seeds retaining 1.2 g /Kg seeds): 64.3
